Laboratory results: patent US11110104B2, “Glutamine antagonists for the treatment of cognitive deficits and psychiatric disorders” (THE JOHNS HOPKINS UNIVERSITY, priority 2015, dated 2021)
“Also recorded” adds a separate entry of the source. Like-named read-outs stand apart in the source and are kept apart here.

Legend:
[1] = Stability in human plasma; type: in vitro ADME
[2] = Stability in monkey plasma; type: in vitro ADME
[3] = Pharmacokinetics of DON in swine plasma and CSF; conditions: 60 min post-administration
LPS-treated mice = assay: LPS-induced deficit in contextual fear memory reconsolidation; type: in vivo, mouse; conditions: 1.9 mg/kg, i.p. co-administered with LPS 0.3 mg/kg, i.p. on Day 2
Procedure: Fear conditioning and testing were performed in sound-attenuating chambers equipped with a metal grid floor to deliver calibrated inescapable footshocks. Fear conditioning (Day 1) consisted of a 2 minute habituation period followed by three 20 second 80 dB 2 kHz tones co-terminating in 0.4 mA footshocks separated by 1 minute interstimulus intervals. One day later (Day 2), each mouse was randomized into one of four treatment groups (PBS/Vehicle, PBS/9, LPS/Vehicle, LPS/9) and co-administered either LPS (0.3 mg/kg, i.p.) or filtered PBS with either 9 (1.9 mg/kg, i.p.) or Vehicle. Four hours later, each mouse was exposed to a reactivation session in which they were placed back in the fear conditioning context for 15 minutes. One day later (Day 3), each mouse underwent a test for fear memory reconsolidation by being placed again in the fear conditioning context for 10 minutes. For each session, time spent freezing was determined using automated motion detection software (CleverSys) and converted to percentages.
Freezing percentages during the reconsolidation test were grouped by treatment into 2 minute bins. Between group differences were determined by repeated measure two-way ANOVA and post hoc Dunnett's test with significance defined as p<0.05.

glutamate in CSF = assay: CSF glutamate levels in EcoHIV mice (LC/MS); type: in vivo, mouse
Procedure: CSF samples were derivatized with dabsyl chloride for analysis. To prepare a dabsyl chloride stock, acetone was added to dabsyl chloride to 10 mM concentration, vortexed, water bath sonicated for 10 minutes followed by heating to 60° C. for 10 minutes, vortexing again, centrifugation for 5 minutes at 16,000×g and taking the supernatant. Ten microliter standards of glutamate were prepared in artificial CFS by serial dilution. To each standard and sample, one volume of 0.2 M sodium bicarbonate buffer (pH 9.0 containing 100 μM glutamate-d5 as internal standard) and 2 volumes dabsyl chloride stock was added. Samples were incubated at 60° C. 10 minutes to derivatize. […] Glutamate was quantifiable to 10 nM.
Male C57BL6 mice were sham or EcoHIV-inoculated (4e6 pg p24, i.p.) then randomized to receive vehicle or compound 25 (1.82 mg/kg, i.p. every other day) beginning 15 post-inoculation. On day 33 post-inoculation, all mice were deeply anesthetized with isoflurane 30 minutes post-last dose, and CSF was terminally sampled from the cistema magna prior to measurement of glutamate concentrations by LC/MS-MS. EcoHIV infection caused increases in CSFS glutamate that were normalized by compound 25 treatment. Excluding values >2SD from mean, n=4-5/group. Analysis by two-way ANOVA followed by post-hoc Fisher's LSD, *p<0.05, ***p<0.001. Data are presented as the mean+SEM.

CSDS mice [4] = assay: Three-chambered social approach test after chronic social defeat stress (CSDS); type: in vivo, mouse
Procedure: (§1) Compound 25 was synthesized by our laboratory. For all pharmacokinetic and efficacy studies, compound 25 was administered per oral (p.o.) at a dose of 1.82 mg/kg (1 mg/kg DON equivalent) in 50 mM HEPES-buffered saline.
Male 7- to 8-week-old C57BL/6J (C57) mice (25-30 g; Jackson Laboratory, Bar Harbor, Me.) and 4- to 6-month-old CD-1 retired breeders (35-45 g; Charles River Laboratories, Wilmington, Mass.) were used for all experiments. Mice were housed on a reversed 12-h light/dark cycle, and maintained in a humidity- and temperature-controlled room with water and food available ad libitum. CD-1 mice were singly housed except during social defeats. C57 mice were group housed before starting CSDS and singly housed after CSDS. Behavioral experiments were conducted during the dark cycle. All studies were conducted with approved protocols from the Johns Hopkins University Institutional Animal Care and Use Committee and were in accordance with the NIH guidelines for the Care and Use of Laboratory Animals.
Mice were exposed to CSDS and subsequently administered compound 25 or vehicle every other day for 12 days (FIG. 14A). To examine the effect of compound 25 treatment on behavioral phenotypes induced by CSDS, we first tested the mice in the three-chambered social approach test, where the social approach of a mouse toward a stranger mouse trapped in a wire cage was measured.

CSDS mice [5] = assay: Sucrose preference test after CSDS; type: in vivo, mouse
Procedure: as §1
The sucrose preference test was performed according to a previously described protocol (Cao et al, 2013; Roybal et al, 2007). The mice were singly caged before the test. On day 1, their normal water bottles were replaced with two 50 ml tubes (bottle ‘A’ and bottle ‘B’) fitted with bottle stoppers containing two-balled sipper tubes. The position of bottles A and B were switched daily to avoid a side bias, and the fluid consumed from each bottle was measured daily. During days 1 and 2, bottles A and B were filled with normal drinking water (W/W). During days 3 and 4, both bottles were filled with a solution of 1.5% sucrose dissolved in drinking water (S/S). On days 5-8, bottle A contained 1.5% sucrose, and bottle B contained drinking water […]. Sucrose preference on each day for each mouse was calculated as 100%×(Vol A/(Vol A+Vol B)) and averaged across the days for a given condition (W/W, S/S, or S/W). The average of total fluid consumption was also calculated as (Vol A+Vol B).
To examine the effect of compound 25 treatment on anhedonia-like behavior, control and CSDS mice were subjected to an 8-day sucrose preference test.

EcoHIV-infected mice [6] = assay: Radial arm water maze, therapeutic DON treatment of EcoHIV-infected mice; type: in vivo, mouse; conditions: DON 1 mg/kg every other day started 26 days after EcoHIV infection; tests from day 30
Procedure: The experimental design was for DON prophylaxis except that mice were infected first and DON administration at 1 mg/kg every other day started on Day 26 after infection.

STX1A = assay: Gene expression by QPCR in basal ganglia brain tissues of EcoHIV-infected mice; type: in vivo, mouse; conditions: DON treatment reversal experiment; tissues collected 15 min after last DON treatment
Procedure: Relative extent of gene expression tested by QPCR in basal ganglia brain tissues obtained from mice tested in DON treatment reversal experiment shown in FIG. 2A, FIG. 2B, and FIG. 2C. The tissues were collected 15 min after the last DON treatment;

NRGN = assay: as above; type: in vivo, mouse; conditions: DON treatment reversal experiment; tissues collected 15 min after last DON treatment
[7] = DON levels in plasma, CSF and basal ganglia of mice (LC-MS/MS); type: in vivo; conditions: C57Bl, mouse, 15 minutes after dosing, DON 1 mg/kg
Procedure: DON was spiked into untreated mouse plasma to generate standards at concentrations from 10 nM to 100 μM at half-log intervals. Butanol with 3N HCl (250 μL) was added to standards and samples (50 μL) and centrifuged at 16,000×g for 5 minutes to precipitate proteins. […] After derivatization the samples were dried at 45° C. under a nitrogen stream. Samples were resuspended in 50 μL 70/30 water/acetonitrile, vortexed and centrifuged at 16,000×g. […] Standards within the quantifiable range were used to generate a standard curve. Samples below the limit of quantification (BLQ) were assigned a value of 0.
Brain analysis: Brain sections were weighed. DON was spiked into untreated mouse brain tissue to generate standards as described above. Butanol with 3N HCl (5 μL/mg) was added to standards and samples and homogenized by pestle followed by centrifugation at 16,000×g. An aliquot (200 μL) of the supernatant was transferred to a new tube and processed as described in the plasma analysis section. Twenty microliters was injected for analysis as described hereinabove.

EAE mice = conditions: cited from earlier work
EcoHIV-infected mice [8] = assay: Radial arm water maze, DON prophylaxis in EcoHIV-infected mice
[9] = DON 1 mg/kg, i.p., […], 30 days post-infection

In the case of `CC(C)OC(=O)[C@H](CCC(=O)C=[N+]=[N-])NC(=O)O[C@H](C)OC(=O)C(C)(C)C` (single isomer, unassigned) [Compound 14b], the “stability in human plasma” value [1] is reported as “unexpected stability”, the “stability in monkey plasma” value [2] is reported as “unexpected stability” and the “CSF-to-plasma ratio of DON relative to DON” value [3] is reported as “increased CSF-to-plasma ratios”. For the same molecule, the “amount of DON delivered to the CSF relative to DON” value [3] was “substantially higher amounts of DON to the CSF”.

For `CC(C)C[C@H](N)C(=O)N[C@@H](CCC(=O)C=[N+]=[N-])C(=O)OC(C)C` [Compound 9], the “LPS-induced reduced freezing during the reconsolidation test (Day 3)” value (LPS-treated mice) was “attenuated; also recorded: indistinguishable from PBS/Veh mice”.

In the case of `CCOC(=O)[C@H](CCC(=O)C=[N+]=[N-])NC(=O)[C@@H](N)CC(C)C` [Compound 25], the “EcoHIV-induced increases in CSF glutamate concentration” value (glutamate in CSF; 1.82 mg/kg, i.p. every other day, CSF sampled day 33 post-inoculation, 30 minutes post-last dose) is reported as “significantly reversed EcoHIV-induced increases in CSF glutamate concentration”, the “social behaviors (time in chamber, time sniffing) in mice subjected to CSDS” value (CSDS mice [4]; 1.82 mg/kg p.o. (1 mg/kg DON equivalent) every other day for 12 days after CSDS) is reported as “normalized observed social behaviors” and the “sociability in control mice” value (CSDS mice [4]; 1.82 mg/kg p.o. every other day for 12 days, control mice) is reported as “no effect on sociability in control mice”. For the same molecule, the “sucrose consumption (sucrose preference) in the CSDS group, days 5-8” value (CSDS mice [5]; 1.82 mg/kg p.o. (1 mg/kg DON equivalent), CSDS mice) was “markedly restored sucrose consumption” and the “sucrose consumption (sucrose preference) in controls, days 5-8” value (CSDS mice [5]; 1.82 mg/kg p.o., control mice) was “no change was observed in controls”.

In the case of `CC(C)OC(=O)[C@H](CCC(=O)C=[N+]=[N-])NC(=O)OC(OC(=O)C(C)(C)C)c1ccccc1` (stereo partly drawn) [Compound 47], the “CSF-to-plasma ratio of DON relative to DON” value [3] is reported as “increased CSF-to-plasma ratios” and the “amount of DON delivered to the CSF relative to DON” value [3] is reported as “substantially higher amounts of DON to the CSF”.

In the case of `[N-]=[N+]=CC(=O)CC[C@H](N)C(=O)O` [DON, 6-diazo-5-oxo-L-norleucine], the “cognitive disease (radial arm water maze)” value (EcoHIV-infected mice [6]) is reported as “completely abrogates (reverses) cognitive disease”, the “STX1A gene expression in basal ganglia” value (STX1A) is reported as “reversed HIV-mediated down-modulation” and the “NRGN gene expression in basal ganglia” value (NRGN) is reported as “reversed HIV-mediated down-modulation”. For the same molecule, the concentration at 15 min ([7]; CSF, read-out: DON concentration in CSF) was 300 to 500 nM, the concentration at 15 min ([7]; brain (basal ganglia), read-out: DON concentration in brain tissue (basal ganglia)) was 300 to 500 nM and the concentration at 15 min ([7]; plasma, read-out: DON concentration in plasma) was 2500 to 3000 nM. For the same molecule, the “glutamate in CSF of EcoHIV mice” value (glutamate in CSF; DON-treated mice, no significant differences by one-way ANOVA) was “tended to decrease the glutamate in the EcoHIV mice”, the “EAE (disease score), DON from time of immunization” value (EAE mice; DON i.p. q.a.d. 1.6 mg/kg from the time of immunization (Shijie, et al., 2009)) was “attenuates EAE” and the “EAE (disease score), lower doses of DON” value (EAE mice; DON i.p. q.a.d., doses lower than 1.6 mg/kg (Shijie, et al., 2009)) was “ineffective”. The “HIV-induced cognitive impairment (radial arm water test, learning and memory)” value (EcoHIV-infected mice [8]; DON 1 mg/kg on alternate days from 24 h before EcoHIV infection, tested 30 days after infection) was “prevents development of HIV-induced cognitive impairment”, the “cognitive performance as measured by errors (RAWM, hidden platform)” value (EcoHIV-infected mice [8]; [9]) was “fully normalized cognitive performance” and the “cognitive performance as measured by latency to escape (RAWM, hidden platform)” value (EcoHIV-infected mice [8]; [9]) was “fully normalized cognitive performance”.
